{"source": "patent US20240238268A1", "about": "“TREATMENTS AND METHODS FOR TREATING ALZHEIMER'S DISEASE” (Board of Supervisors of Louisiana State University and …, priority 2021, published 2024)", "format_in_all_cases": "in vivo, mouse", "key": {"E-Cadherin": {"test_system": "E-Cadherin", "assay": "E-Cadherin level, protein chip assay", "details": "aged 3xTg-AD female mice; cortex and hippocampus; 30 mg/kg, 7 days, IP", "protocol": "FIGS. 19A-19F are six graphs showing PRMT4 inhibitor (TP-064) reduced ICAM-1, VCAM-1 and enhanced E-Cadherin protein levels in aged female 3xTg-AD mice. In FIGS. 19A-19D, aged 3xTg-AD female mice v. […] Adhesion molecules were assessed via protein chip assay in the cortex and hippocampus. * p<0.05 evaluated by one-way ANOVA with Tukey's post-hoc analyses."}, "NO3+NO2": {"test_system": "NO3+NO2", "assay": "Nitrate/Nitrite colorimetric assay (Griess reaction) of whole brain", "details": "3xTg-AD mice; 30 mg/kg, IP, 7 days", "protocol": "Nitrate/Nitrite colorimetric assay: Following euthanasia, whole brains were dissected from mice. Cold (4 °C) phosphate-buffered saline (PBS) and glass tissue grinders were used to homogenize the whole brain. Homogenates were centrifuged at 10,000×g for 20 min at 4° C. The supernatant was collected and filtered using 10 kDa ultrafilter (Cat. No. […]010, Millipore, Burlington, VA). Nitrate and nitrite were quantified per manufacturer's instructions (Cat. No. 780001, Cayman Chemical, Ann Arbor, MI). In summary, 80 μL of supernatant was loaded into a 96-well plate with 10 μL enzyme cofactor, and 10 μL nitrate reductase. Following 3 hrs of incubation, 100 μL Griess reagent was added, and plate was incubated for 30 min. The standard curve was provided by the manufacturer, and all sample concentrations were determined from the standard curve values. Changes in absorbance were measured at 550 nm. Final nitrate/nitrite levels were expressed in μM concentration."}, "aged 3xTg-AD female mice": {"test_system": "aged 3xTg-AD female mice", "assay": "BBB leakage: 40 kDa FITC-dextran in perivascular space", "details": "30 min after FITC-dextran", "from_the_text": "FIGS. 14A-14C show BBB leakage is reduced with specific PRMT4 inhibitor (TP-064) or AAV knockdown of PRMT4 in aged 3xTg-AD female mice. Aged female 3xTg-AD mice had higher levels of 40 kDa FITC-dextran in the perivascular space v. C57 controls. This was reduced with administration of PRMT inhibitor (TP-064) or AAV knockdown of PRMT4. […] FIG. 14B is a schematic representation of one of the disclosed experimental paradigms. […] C57, #p<0.05 v. 3xTg-AD female, evaluated by one-way ANOVA with Tukey's post-hoc analysis."}, "eNOS": {"test_system": "eNOS", "assay": "eNOS protein level in brain, capillary-phoresis", "details": "treated 3xTg-AD mice; control = 100%", "from_the_text": "Capillary-phoresis immunoassay via ProteinSimple®: Quantification of all protein targets was achieved using Simple Western analysis in a Jess™ apparatus per the manufacturer's protocol (ProteinSimple, Bio-techne, Minneapolis, MN). Protein was extracted from dissected tissue in an extraction buffer consisting of T-PER® Tissue Protein Extraction Reagent (Cat. No. 78510, Thermo Fischer Scientific, Waltham, MA) and Halt™ Protease Inhibitor Cocktail (Cat. No. 87785, Thermo Fischer Scientific, Waltham, MA). Following homogenization and centrifugation (10,000×g, 5 min, 4° C.), protein concentration was determined in tissue protein supernatant samples using DC Protein Assay (Cat. No. 5000112, Bio-Rad Laboratories, Hercules, California) according to manufacturer instructions. […] Antibody diluent (ProteinSimple, Bio-techne, Minneapolis, MN) was used for all antibody dilutions as follows: PRMT4 (1:50, RRID: AB_2068436), PRMT6 (1:100, Cell Signaling Technology cat. 14641), eNOS (1:200, RRID: AB_10850618), nNOS (1:100, RRID: AB_2152488), iNOS (1:100, RRID: AB_10000625), DDAH2 (1:50, RRID: AB_2640442) Antibodies were detected using HRP-conjugated secondary anti-rabbit, and -mouse. Relative protein levels were calculated by measuring the area under the peak of a chemiluminescent chromatogram and normalized to total capillary chemiluminescence for a given sample. […]"}, "[1]": {"assay": "Toxicity: blood counts, liver enzymes, kidney function", "from_the_text": "The inventors have on-going studies to screen for major organ toxicity. Plasma liver enzymes (ALT/AST) and kidney function were normal in TP-064-treated mice."}}}
{"molecule": "CNCCN1CCC(c2cc(CN(C)C(=O)c3cccc(Oc4ccccc4)c3)ccn2)CC1", "note": "[TP-064, N-Methyl-N-((2-(1-(2-(methylamino)ethyl)piperidin-4-yl)pyridin-4-yl)methyl)-3-phenoxybenzamide]", "values": [{"measurement": "E-Cadherin level", "setting": "E-Cadherin", "value": "elevated"}, {"measurement": "total NO3+NO2 in whole-brain lysate", "setting": "NO3+NO2", "value": "3.90 ± 0.667", "unit": "µM"}, {"measurement": "40 kDa FITC-dextran in the perivascular space (BBB leakage)", "setting": "aged 3xTg-AD female mice", "value": "reduced"}, {"measurement": "eNOS level in cortical lysates", "setting": "eNOS", "value": "94.0%±25.6"}, {"measurement": "eNOS level in hippocampal lysates", "setting": "eNOS", "value": "69.5%±2.71"}, {"measurement": "complete blood counts", "setting": "[1]; mice treated 7 days", "value": "no abnormalities"}, {"measurement": "Plasma liver enzymes (ALT/AST)", "setting": "[1]; treated mice", "value": "normal"}, {"measurement": "kidney function", "setting": "[1]; treated mice", "value": "normal"}]}
